Data from patent US7928126B2, “Cyanopyridine derivative and use thereof as medicine” (Mitsubishi Tanabe Pharma Corporation, priority 2005, dated 2011).
Where a name gives a salt, the structure may show the parent alone.

Columns and labels:
Assay type in all cases: biochemical
aurora 2 kinase = molecular target: T1, aurora 2 kinase (Homo sapiens, UniProt O14965); assay: Aurora 2 kinase assay (32P-ATP, peptide substrate LRRASLG); conditions: room temperature 60 min
T1 construct: The amplified gene encoding aurora 2 kinase was introduced into Escherichia coli expression vector pET32a; made in house; host or cells: Escherichia coli BL21R (Novagen), vector pET32a
T1 sequence (O14965 1-403): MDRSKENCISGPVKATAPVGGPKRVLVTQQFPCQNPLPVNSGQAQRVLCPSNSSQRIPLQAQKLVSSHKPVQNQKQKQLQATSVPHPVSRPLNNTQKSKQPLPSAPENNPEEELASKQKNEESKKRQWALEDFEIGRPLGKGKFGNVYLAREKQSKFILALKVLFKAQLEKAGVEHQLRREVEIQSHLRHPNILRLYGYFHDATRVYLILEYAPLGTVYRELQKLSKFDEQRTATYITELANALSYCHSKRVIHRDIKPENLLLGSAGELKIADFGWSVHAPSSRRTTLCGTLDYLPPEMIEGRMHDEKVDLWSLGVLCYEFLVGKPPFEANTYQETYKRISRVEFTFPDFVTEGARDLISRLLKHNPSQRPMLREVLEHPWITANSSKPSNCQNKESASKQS

[1] = molecular target: T2, Porcine brain tubulin protein (Sus scrofa, UniProt P02550+P02554); assay: Tubulin polymerization assay (turbidity at 405 nm); conditions: 10 μM compound, maximum polymerization rate, 37° C.; read-out: inhibitory rate (%)
T2 construct: 3.3 mg/ml Porcine brain tubulin protein: Cytoskeleton; purchased Cytoskeleton; host or cells: porcine brain (tissue-derived)
T2 sequence (P02550 whole entry): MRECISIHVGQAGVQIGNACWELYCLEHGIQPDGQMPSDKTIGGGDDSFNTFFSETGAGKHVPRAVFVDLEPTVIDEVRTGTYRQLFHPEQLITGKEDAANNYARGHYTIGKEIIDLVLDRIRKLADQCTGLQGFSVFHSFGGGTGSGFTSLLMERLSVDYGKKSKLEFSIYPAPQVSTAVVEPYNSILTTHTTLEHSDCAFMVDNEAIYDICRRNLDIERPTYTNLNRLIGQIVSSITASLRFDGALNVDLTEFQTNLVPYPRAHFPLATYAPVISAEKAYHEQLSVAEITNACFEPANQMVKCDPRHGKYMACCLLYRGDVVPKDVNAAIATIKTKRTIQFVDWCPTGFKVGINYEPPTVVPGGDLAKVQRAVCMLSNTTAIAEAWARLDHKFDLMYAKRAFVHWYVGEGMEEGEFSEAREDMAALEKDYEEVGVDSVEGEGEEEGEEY
T2 sequence (P02554 whole entry): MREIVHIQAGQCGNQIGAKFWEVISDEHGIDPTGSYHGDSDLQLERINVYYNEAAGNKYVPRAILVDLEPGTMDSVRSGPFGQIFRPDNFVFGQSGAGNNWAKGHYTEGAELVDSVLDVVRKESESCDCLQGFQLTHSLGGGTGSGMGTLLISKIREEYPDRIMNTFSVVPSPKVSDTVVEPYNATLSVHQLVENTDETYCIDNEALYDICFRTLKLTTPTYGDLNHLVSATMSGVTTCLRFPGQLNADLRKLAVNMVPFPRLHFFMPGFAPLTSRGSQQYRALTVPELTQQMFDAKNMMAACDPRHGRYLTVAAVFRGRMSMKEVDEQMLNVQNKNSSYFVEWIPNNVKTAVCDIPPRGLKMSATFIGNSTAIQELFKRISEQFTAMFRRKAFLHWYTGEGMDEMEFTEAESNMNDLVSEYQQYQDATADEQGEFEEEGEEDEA
Description: A tubulin polymerization reaction mixture (50 μL) (80 mM Pipes pH=6.9, 0.5 mM MgCl2, 1 mM EGTA, 1 mM GTP, 3.3 mg/ml Porcine brain tubulin protein: Cytoskeleton, 10 μM compound) was prepared in a 96 well flat bottom plate under ice-cooling. This was placed in a plate reader (IWAKI microplate reader, EZS-ABS) controlled to a temperature of 37° C., whereby a temperature dependent tubulin polymerization reaction was initiated. Since the turbidity of the reaction mixture increases as the tubulin polymerization proceeds, the absorbance at 405 nm was measured every other minute for 30 min to monitor the polymerization reaction. Of the 30 min measures, the three largest differences per min of turbidity (generally those immediately after start of the reaction) were taken, and the average of the three values was calculated and taken as the maximum polymerization rate. Inhibitory percent (%)=(C−T)/C×100 wherein T is the maximum polymerization rate of the reaction mixture containing the compound, and C is the maximum polymerization rate of the reaction mixture without the compound.

aurora 1 kinase = molecular target: T3, aurora 1 kinase (Homo sapiens, UniProt Q96GD4); assay: Aurora 1 kinase assay (32P-ATP, peptide substrate LRRWSLG); conditions: room temperature 60 min
T3 construct: purchased UPSTATE
T3 sequence (Q96GD4 whole entry): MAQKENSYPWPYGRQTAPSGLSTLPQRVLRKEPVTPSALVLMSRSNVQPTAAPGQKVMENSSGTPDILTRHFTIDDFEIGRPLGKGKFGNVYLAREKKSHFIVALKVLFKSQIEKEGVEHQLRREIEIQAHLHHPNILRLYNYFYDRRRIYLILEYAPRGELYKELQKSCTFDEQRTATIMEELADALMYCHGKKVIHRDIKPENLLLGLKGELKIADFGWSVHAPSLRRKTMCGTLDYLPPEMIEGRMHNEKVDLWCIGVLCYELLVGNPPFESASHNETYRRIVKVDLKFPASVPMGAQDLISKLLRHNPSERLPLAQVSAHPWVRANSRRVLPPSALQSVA

Ki (aurora 2 kinase) [nM] | inhibition at 10 µM [1] [%] | Ki (aurora 1 kinase) [nM] | Structure (SMILES)
15 | 36 | – | Cc1cc(Nc2cc(C(F)(F)F)c(C#N)c(NCCOc3ccccc3)n2)n[nH]1 [Example 3, 2-(2-phenoxyethylamino)-6-(5-methyl-1H-pyrazol-3-ylamino)-4-trifluoromethylnicotinonitrile]
3 | < 0 | – | Cc1cc(Nc2cc(-c3cccnc3)c(C#N)c(NCCOc3ccccc3)n2)n[nH]1 [Example 6, 2-(2-phenoxyethylamino)-6-(5-methyl-1H-pyrazol-3-ylamino)-4-(pyridin-3-yl)nicotinonitrile]
6 | 63 | – | Cc1cc(Nc2cc(C)c(C#N)c(NCCOc3ccccn3)n2)n[nH]1 [Example 7, 2-(2-(pyridin-2-yloxy)ethylamino)-6-(5-methyl-1H-pyrazol-3-ylamino)-4-methylnicotinonitrile dihydrochloride]
6 | 42 | – | COc1ccccc1OCCNc1nc(Nc2cc(C)[nH]n2)cc(C)c1C#N [Example 8, 2-(2-(2-methoxyphenoxy)ethylamino)-6-(5-methyl-1H-pyrazol-3-ylamino)-4-methylnicotinonitrile]
3 | 44 | – | Cc1cc(Nc2cc(C)c(C#N)c(NCCOc3ccc(F)cc3)n2)n[nH]1 [Example 10, 2-(2-(4-fluorophenoxy)ethylamino)-6-(5-methyl-1H-pyrazol-3-ylamino)-4-methylnicotinonitrile]
3 | 65 | – | Cc1cc(Nc2cc(C)c(C#N)c(NCCOc3ccc(F)c(Cl)c3)n2)n[nH]1 [Example 16, 2-(2-(3-chloro-4-fluorophenoxy)ethylamino)-6-(5-methyl-1H-pyrazol-3-ylamino)-4-methylnicotinonitrile]
2 | 79 | – | Cc1cc(Nc2cc(-c3cccnc3)c(C#N)c(NCCOc3cccc(F)c3)n2)n[nH]1 [Example 18, 2-(2-(3-fluorophenoxy)ethylamino)-6-(5-methyl-1H-pyrazol-3-ylamino)-4-(pyridin-3-yl)nicotinonitrile dihydrochloride]
1 | 73 | – | Cc1cc(Nc2cc(C)c(C#N)c(NCCOc3ccccc3Cl)n2)n[nH]1 [Example 24, 2-(2-(2-chlorophenoxy)ethylamino)-6-(5-methyl-1H-pyrazol-3-ylamino)-4-methylnicotinonitrile hydrochloride]
66 | 42 | – | Cc1ccc(OCCNc2nc(Nc3cc(C)[nH]n3)ccc2C#N)c(C)n1 [Example 29, 2-(2-(2,6-dimethylpyridin-3-yloxy)ethylamino)-6-(5-methyl-1H-pyrazol-3-ylamino)nicotinonitrile dihydrochloride]
80 | 34 | – | Cc1cc(Nc2ccc(C#N)c(NCCOc3ccc(OC(F)(F)F)cc3)n2)n[nH]1 [Example 30, 2-(2-(4-(trifluoromethoxy)phenoxy)ethylamino)-6-(5-methyl-1H-pyrazol-3-ylamino)nicotinonitrile]
– | – | ≤ 100 | Cc1cc(Nc2cc(C3CC3)n[nH]2)nc(NCCOc2cccnc2)c1C#N [Example 34, 6-(5-cyclopropyl-1H-pyrazol-3-ylamino)-4-methyl-2-(2-(pyridin-3-yloxy)ethylamino)nicotinonitrile]

More lines, now with the values behind:

Structure (SMILES) | Ki (aurora 2 kinase) [nM] | inhibition at 10 µM [1] [%] | Ki (aurora 1 kinase) [nM]
Cc1cc(Nc2cc(-c3ccccc3)c(C#N)c(NCCOc3ccccc3)n2)n[nH]1 [Example 1, 2-(2-phenoxyethylamino)-6-(5-methyl-1H-pyrazol-3-ylamino)-4-phenylnicotinonitrile] | 19 | 51 | –
COc1ccc(-c2cc(Nc3cc(C)[nH]n3)nc(NCCOc3ccccc3)c2C#N)cc1 [Example 4, 2-(2-phenoxyethylamino)-6-(5-methyl-1H-pyrazol-3-ylamino)-4-(4-methoxyphenyl)nicotinonitrile] | 15 | 63 | –
COc1ccc(OCCNc2nc(Nc3cc(C)[nH]n3)cc(C)c2C#N)cc1 [Example 5, 2-(2-(4-methoxyphenoxy)ethylamino)-6-(5-methyl-1H-pyrazol-3-ylamino)-4-methylnicotinonitrile hydrochloride] | 26 | 51 | –
Cc1cc(Nc2cc(C)c(C#N)c(NCCOc3ccncc3)n2)n[nH]1 [Example 11, 2-(2-(pyridin-4-yloxy)ethylamino)-6-(5-methyl-1H-pyrazol-3-ylamino)-4-methylnicotinonitrile] | 24 | 42 | –
Cc1cc(Nc2cc(C)c(C#N)c(NCCOc3ccccc3F)n2)n[nH]1 [Example 13, 2-(2-(2-fluorophenoxy)ethylamino)-6-(5-methyl-1H-pyrazol-3-ylamino)-4-methylnicotinonitrile hydrochloride] | 2 | 69 | ≤ 100
Cc1cc(Nc2ccc(C#N)c(NCCOc3ccccc3)n2)n[nH]1 [Example 14, 2-(2-phenoxyethylamino)-6-(5-methyl-1H-pyrazol-3-ylamino)nicotinonitrile] | 3 | 55 | –
Cc1cc(Nc2ccc(C#N)c(NCCOc3cccc(F)c3)n2)n[nH]1 [Example 15, 2-(2-(3-fluorophenoxy)ethylamino)-6-(5-methyl-1H-pyrazol-3-ylamino)nicotinonitrile] | 2 | 69 | –
Cc1cc(Nc2ccc(C#N)c(NCCOc3cccnc3)n2)n[nH]1 [Example 17, 2-(2-(pyridin-3-yloxy)ethylamino)-6-(5-methyl-1H-pyrazol-3-ylamino)nicotinonitrile] | 2 | 67 | –
Cc1cc(Nc2ccc(C#N)c(NCCOc3ccccc3F)n2)n[nH]1 [Example 19, 2-(2-(2-fluorophenoxy)ethylamino)-6-(5-methyl-1H-pyrazol-3-ylamino)nicotinonitrile hydrochloride] | 1 | 59 | –
Cc1cc(Nc2cc(C)c(C#N)c(NCCOc3cc(F)cc(F)c3)n2)n[nH]1 [Example 20, 2-(2-(3,5-difluorophenoxy)ethylamino)-6-(5-methyl-1H-pyrazol-3-ylamino)-4-methylnicotinonitrile hydrochloride] | 2 | 75 | –
Cc1cc(Nc2ccc(C#N)c(NCCOc3ccccc3Cl)n2)n[nH]1 [Example 25, 2-(2-(2-chlorophenoxy)ethylamino)-6-(5-methyl-1H-pyrazol-3-ylamino)nicotinonitrile hydrochloride] | 2 | 51 | ≤ 100
COc1ccc(-c2cc(Nc3cc(C)[nH]n3)nc(NCCOc3ccccc3Cl)c2C#N)cc1 [Example 26, 2-(2-(2-chlorophenoxy)ethylamino)-6-(5-methyl-1H-pyrazol-3-ylamino)-4-(4-methoxyphenyl)nicotinonitrile hydrochloride] | 13 | 48 | –
Cc1ccc(OCCNc2nc(Nc3cc(C)[nH]n3)ccc2C#N)cn1 [Example 27, 2-(2-(6-methylpyridin-3-yloxy)ethylamino)-6-(5-methyl-1H-pyrazol-3-ylamino)nicotinonitrile dihydrochloride] | 3 | 57 | ≤ 100
Cc1cc(Nc2cc(C(C)C)n[nH]2)nc(NCCOc2cccnc2)c1C#N [Example 35, 6-(5-isopropyl-1H-pyrazol-3-ylamino)-4-methyl-2-(2-(pyridin-3-yloxy)ethylamino)nicotinonitrile] | – | – | ≤ 100
